Patent US10808018B2, “Erythropoietin-derived peptides and methods of protecting cells from oxidative damage induced by reactive oxygen species” (SYLUS CO., LTD., priority 2017, dated 2020)
Peptide text beside a SMILES is read from it.

Test system: PC12 cells
Experiment: Cell proliferation side effect, MTS assay
Assay type: cell-based
Settings: peptide 1 pM to 0.5 nM, 48 hours, FIG. 4
Procedure: Side effects such as cell proliferation were determined for the three peptides (ML1-L2, ML1-K2, and ML1-R2) prepared in Example 4.
In detail, to determine cell proliferation degree, an MTS assay (CellTiter 96 Aqueous One Solution Cell Proliferation Assay, Promega, Madison, Wis., USA) was performed. […] The initial number of cells (0 hour) and the number of cells after 48 hours were counted. Intracellular soluble formazan produced by cell reduction was determined by recording absorbance of each 96-well plate at a wavelength of 490 nm using a VERSA MAX.

CC(C)C[C@H](NC(=O)CNC(=O)[C@H](CO)NC(=O)[C@@H](NC(=O)[C@H](C)NC(=O)[C@H](CCCCN)NC(=O)[C@H](CC(=O)O)NC(=O)[C@@H](NC(=O)[C@H](Cc1c[nH]cn1)NC(=O)[C@@H](N)CCCNC(=N)N)C(C)C)C(C)C)C(=O)N[C@@H](CCCNC(=N)N)C(=O)N[C@@H](CO)C(=O)N[C@@H](CC(C)C)C(=O)N[C@H](C(=O)N[C@H](C(=O)N[C@@H](CCCNC(=N)N)C(=O)O)[C@@H](C)O)[C@@H](C)O [ML1-R2] (H-RHVDKAVSGLRSLTTR-OH)
cell proliferation rate (side effect): no side effect of cell proliferation
